Publication PMC12173945, “Import mechanism of peroxisomal proteins with an N-terminal signal sequence” (Nature Cell Biology, 2025)
Where a chain is given by its changes, count along the chain named.

Experiments:
[1] = test system: yeast PEX7 bound to the ∆APH mutant of GST-tagged PEX39; experiment: Competitive binding: peptide displacement of PEX7 from GST-tagged ∆APH PEX39 beads (Fig. 8b); parameters: species or system yeast (S. cerevisiae); details: for Stripping of PEX7 off PEX39 lacking the APH: peptide competition, Fig. 8b
Description: For the assay shown in Fig. 8b, the beads were first incubated with yeast PEX7 and the GST-tagged ∆APH variant of yeast PEX39 (each at 1 µM) for 30 min at 25 °C with agitation. Varying concentrations of the peptides, as indicated in the text, were then added and the reactions were incubated for a further 1 h under the same conditions. The beads were finally sedimented and the resulting supernatant fractions resolved by SDS–PAGE as above.
To calculate the fraction bound in the quantitative binding assay, digitized images of Coomassie-stained gels were first converted into 16-bit grayscale and their pixel intensities inverted. The mean pixel intensity was then measured within a rectangular selection encompassing each PEX7 protein band and the mean intensity of the background was subtracted from the measured values. The background-corrected intensities (corresponding to unbound PEX7 remaining in solution) were in turn subtracted from the intensity of the PEX7 band in a sample without PEX39 (that is, total PEX7). The resulting difference (corresponding to PEX7 that had bound to the beads) was finally divided by the total PEX7 intensity to yield the fraction bound. The data were fitted either to a standard binding isotherm or a competitive-binding isotherm, as appropriate, to estimate the observed binding constants.

[2] = test system: PEX7–receptor–cargo complex on PEX39-coated beads; experiment: Bead-binding assay: recruitment of PEX7–receptor–cargo complex to PEX39-coated beads (Fig. 7d, 8a); parameters: species or system yeast (S. cerevisiae); details: 100 µM peptide, overnight, Fig. 8a
Description: (§1) Cysteine-containing peptides were covalently conjugated to thiol-reactive SulfoLink coupling resin (Thermo Fisher, catalogue number 20401) according to the manufacturer’s instructions. The prepared beads were then mixed with Assay Buffer containing the fluorescently labelled protein as well as additional components indicated in the text, and the resulting bead suspensions were transferred to a 384-well glass-bottomed plate (Cellvis, P384-1.5H-N). GST-fusion proteins were instead mixed with glutathione agarose 4B (Prometheus, 20-543) in Assay Buffer containing the fluorescently labelled protein and additional components indicated in the text; the resulting bead suspensions were then transferred to a glass-bottomed plate as above. The plates were incubated at RT for the durations specified in the text and directly imaged on the spinning-disk confocal platform described earlier for peroxisomal import reactions in Xenopus egg extract. Note that imaging the beads directly in the binding reaction preserves the equilibrium and thereby allows even weak interactions to be detected. Fluorescence was collected through a Nikon ×10 0.45 NA Plan Apo air objective, and images were acquired using the Nikon NIS-Elements software and a 16-bit digitizer without binning. Imaging parameters were configured to maximize the SNR while avoiding saturation. Samples intended to be compared were imaged using identical acquisition settings.

[3] = test system: yeast PEX7; experiment: Bead-binding assay: peptide-conjugated beads, recruitment of PEX7–GFP or PTS2–GFP; parameters: species or system yeast (S. cerevisiae); details: 1 h; for Recruitment of PTS2–GFP to peptide-conjugated beads: 1 µM PEX7 and 1 µM receptor, 1 µM cargo; for Recruitment of PEX7–GFP to peptide-conjugated beads: peptide on thiol-reactive beads, fluorescence microscopy
Description: as §1

[4] = test system: YG hydrogel (wild-type YG-domain polypeptide of PEX13); experiment: YG hydrogel permeation assay, wild-type hydrogel (Fig. 2, Fig. 3g, Extended Data Fig. 9d); details: for Displacement: PEX5-21 + PEX7
Description: A solution of the purified wild-type YG-domain polypeptide (or the variant lacking the KPWE motif) was concentrated to 2 mM in 50 mM HEPES·NaOH pH 7.8 at RT, 2 M urea and 2 mM TCEP. Aliquots of 2 µl were then spotted on the bottom of multiple wells of a 96-well glass-bottomed plate (Cellvis, P96-1.5H-N), which was then sealed with a gas-impermeable AlumaSeal II film (Hampton Research, HR8-069) to prevent desiccation and incubated at RT for 24 h. Before each assay, the resulting gels were equilibrated overnight at RT in a 100-fold excess of Assay Buffer (25 mM HEPES·NaOH pH 7.8 at RT, 150 mM NaCl and 1 mM TCEP). A 0.5 µM solution of fluorescently labelled protein in Assay Buffer was then added to the samples, with or without additional components at the concentrations indicated in the text, and incubated at RT. Gels were imaged at the times indicated in the text using a Nikon A1R point-scanning confocal system consisting of an inverted Nikon Eclipse Ti microscope and a Nikon ×20 0.75 NA Plan Apo air objective. The objective was centred on the gel edge and focus was maintained 5 µm above the glass surface using the Nikon Perfect Focus System. Fluorescence was excited through a 405/488/561/647 quad-band dichroic (Chroma), using a 488-nm solid-state laser (Coherent) and a galvano scanner. A 50-nm emission band was collected on a gallium arsenide phosphide detector, using an ET525/50m (525 ± 25 nm) single-band bandpass filter (Chroma) and a pinhole dilated to 0.9 Airy units. Images were acquired using the Nikon NIS-Elements software with a pixel size of 1 µm and a 12-bit digitizer. Imaging parameters were configured to maximize the SNR while avoiding saturation. All samples intended to be compared were imaged using identical acquisition settings.
For the YG hydrogel permeation assay, images were first oriented such that each gel edge faced the same direction. Fluorescence profiles across the buffer–gel interface were then generated by centering a 60 × 300 µm rectangular area on the gel edge and then measuring the mean fluorescence at each position within this selection. To express the resulting values in terms of fold enrichment, the fluorescence at each position along the selection was normalized to the average fluorescence in the buffer and plotted in terms of the distance from the gel edge.
To calculate permeation rates through the YG hydrogel, a 60 × 300 µm rectangular area was first centred on the gel edge. The resulting region was then thresholded to demarcate the permeation zone (that is, the distance traversed by the fluorescent species) from the buffer and non-permeated part of the gel. The width of the area above the threshold was then measured and plotted as a function of time. A linear fit to the data yielded the permeation rate.

[5] = molecular target: T1, yeast PEX7, P39108; experiment: bead sedimentation (GST pull-down depletion) assay, SDS-PAGE with Coomassie quantification of PEX7 left in the supernatant; details: chain shown with the change; 1 µM yeast PEX7; varying GST-PEX39 concentrations; 1 h; 25 °C; parent: 0.60 ± 0.056
T1 chain: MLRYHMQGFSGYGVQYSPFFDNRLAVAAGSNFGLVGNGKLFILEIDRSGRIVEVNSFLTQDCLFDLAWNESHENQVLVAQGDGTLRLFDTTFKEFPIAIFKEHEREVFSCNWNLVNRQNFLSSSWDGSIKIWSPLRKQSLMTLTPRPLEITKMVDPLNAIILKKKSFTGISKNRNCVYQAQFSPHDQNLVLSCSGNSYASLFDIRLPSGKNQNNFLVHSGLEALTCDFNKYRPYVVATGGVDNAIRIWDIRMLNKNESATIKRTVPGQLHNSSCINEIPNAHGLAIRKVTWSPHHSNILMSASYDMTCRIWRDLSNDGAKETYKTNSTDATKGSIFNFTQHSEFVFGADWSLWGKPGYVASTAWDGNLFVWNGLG

[6] = molecular target: T2, yeast PEX7 fused at the C terminus to GFP (PEX7–GFP) (yeast (S. cerevisiae), UniProt P39108 1-375); experiment: YG hydrogel release assay (confocal microscopy); hydrogels equilibrated 3 h at RT with 0.5 µM PEX7–GFP or PEX5–GFP, with or without PTS2 peptide and receptor; PEX39 then spiked in and gels imaged every 2 min for 1 h; details: both partners purified
T2 construct: PEX7, yeast (S. cerevisiae); not shown: GST, N-terminal, cleaved; GFP, C-terminal, kept
T2 sequence (looked up): T1 chain

[7] = molecular target: T3, GST-tagged yeast PEX7 (GST–PEX7) (yeast (S. cerevisiae), UniProt P39108 1-375); experiment: bead-binding assay (fluorescence on beads by spinning-disk confocal microscopy); GST-tagged protein on glutathione beads; GFP-fused partner in solution (1 µM each in Extended Data Fig. 9a); 1 h, RT; details: both partners purified
T3 construct: PEX7, yeast (S. cerevisiae); GST followed by a TEV protease-cleavage site; source: purified recombinant; PEX7 was produced in P. pastoris as a fusion to an N-terminal GST tag; not shown: GST, N-terminal, kept
T3 sequence (looked up): T1 chain

CSSTAVPEPRWKPTSASLEE [scrambled peptide, KPWE peptide with amino acids 8 and 10–13 rearranged]
Fraction bound ([1]; [Peptide] 10 µM, replicate 1): 0.936 | Fraction bound ([1]; [Peptide] 10 µM, replicate 2): 0.865 | Fraction bound ([1]; [Peptide] 10 µM, replicate 3): 0.914 | Fraction bound ([1]; [Peptide] 30 µM, replicate 1): 0.947 | Fraction bound ([1]; [Peptide] 30 µM, replicate 2): 0.840 | Fraction bound ([1]; [Peptide] 30 µM, replicate 3): 0.887 | Fraction bound ([1]; [Peptide] 100 µM, replicate 1): 0.965 | Fraction bound ([1]; [Peptide] 100 µM, replicate 2): 0.864 | Fraction bound ([1]; [Peptide] 100 µM, replicate 3): 0.888 | Fraction bound ([1]; [Peptide] 300 µM, replicate 1): 0.952 | Fraction bound ([1]; [Peptide] 300 µM, replicate 2): 0.871 | Fraction bound ([1]; [Peptide] 300 µM, replicate 3): 0.887 | Fraction bound ([1]; [Peptide] 1000 µM, replicate 1): 0.902 | Fraction bound ([1]; [Peptide] 1000 µM, replicate 2): 0.861 | Fraction bound ([1]; [Peptide] 1000 µM, replicate 3): 0.848 | Stripping of PEX7 off PEX39 lacking the APH [1]: could not | Effect of peptide on recruitment of the PEX7–receptor–cargo complex to PEX39-coated beads [2]: had no effect | Recruitment of PTS2–GFP to peptide-conjugated beads [3]: No binding was seen | Recruitment of PEX7–GFP to peptide-conjugated beads [3]: could not

CSSTAVPRPKPWETSASLEE [KPWE peptide, residues 2–20 of S. cerevisiae PEX13 with an additional N-terminal cysteine]
Kobs (observed binding constant) ([1]; PEX7 and GST-PEX39 ∆APH each 1 µM, peptide added 1 h, 25 °C, competitive-binding isotherm, mean ± s.e.m., three independent experiments, ND = binding not detectable): 41 ± 1.2 µM | Fraction bound ([1]; [Peptide] 10 µM, replicate 1): 0.810 | Fraction bound ([1]; [Peptide] 10 µM, replicate 2): 0.769 | Fraction bound ([1]; [Peptide] 10 µM, replicate 3): 0.841 | Fraction bound ([1]; [Peptide] 30 µM, replicate 1): 0.666 | Fraction bound ([1]; [Peptide] 30 µM, replicate 2): 0.688 | Fraction bound ([1]; [Peptide] 30 µM, replicate 3): 0.732 | Fraction bound ([1]; [Peptide] 100 µM, replicate 1): 0.458 | Fraction bound ([1]; [Peptide] 100 µM, replicate 2): 0.521 | Fraction bound ([1]; [Peptide] 100 µM, replicate 3): 0.552 | Fraction bound ([1]; [Peptide] 300 µM, replicate 1): 0.302 | Fraction bound ([1]; [Peptide] 300 µM, replicate 2): 0.372 | Fraction bound ([1]; [Peptide] 300 µM, replicate 3): 0.402 | Fraction bound ([1]; [Peptide] 1000 µM, replicate 1): 0.141 | Fraction bound ([1]; [Peptide] 1000 µM, replicate 2): 0.198 | Fraction bound ([1]; [Peptide] 1000 µM, replicate 3): 0.200 | Stripping of PEX7 off PEX39 lacking the APH [1]: could strip off PEX7 from PEX39 lacking the APH | Effect of peptide on recruitment of the PEX7–receptor–cargo complex to PEX39-coated beads [2]: no longer efficiently recruited to PEX39-coated beads | Recruitment of PTS2–GFP to peptide-conjugated beads [3]: could recruit PTS2–GFP only when PEX7 and the receptor were both present | Recruitment of PEX7–GFP to peptide-conjugated beads [3]: could recruit yeast PEX7 fused at the C terminus to GFP

PTS1: mEGFP fused at the C terminus to an enhanced PTS1 import signal (GYKGLKSKL)
Displacement ([4]; 0 min, replicate 1): 0.000 µm | Displacement ([4]; 0 min, replicate 2): 0.000 µm | Displacement ([4]; 0 min, replicate 3): 0.000 µm | Displacement ([4]; 30 min, replicate 1): 44.992 µm | Displacement ([4]; 30 min, replicate 2): 39.993 µm | Displacement ([4]; 30 min, replicate 3): 31.994 µm | Displacement ([4]; 60 min, replicate 1): 64.988 µm | Displacement ([4]; 60 min, replicate 2): 59.989 µm | Displacement ([4]; 60 min, replicate 3): 45.992 µm

B1: GST-tagged wild-type yeast PEX39 (GST–PEX39), P47087 ΔRPWE (RPWE motif converted to alanine) (protein)
chain: MAAGGELSYEELLDHILNNKPIPNIVEVPNVTLDEGLASTPSLRPRPAAAAGQLQHQSHQGSLDKPNISLDIDQESLEGMTSLTRLSECYDIQSKLQINDSDNDNDDNNNDNNKGDGNDDDNNTVTANPTAR
other: Kobs (observed binding constant) [5]: 190 µM

B2: wild-type yeast PEX39 (natural protein, UniProt P47087 1-132, looked up)
chain: B1 chain with A48R, A49P, A50W, A51E
notes: PEX39, yeast; also called WT; not shown: GST, N-terminal, cleaved
binding result [6]: binds

B3: yeast PEX39 fused at the C terminus to GFP (PEX39–GFP) (natural protein, UniProt P47087 1-132, looked up)
chain: B1 chain with A48R, A49P, A50W, A51E
notes: PEX39, yeast; not shown: GST, N-terminal, cleaved; GFP, C-terminal, kept
binding result [7]: binds

B4: PEX39–GFP: PEX39 fused at the C terminus to a GSG linker and mEGFP (protein)
chain: B1 chain with A48R, A49P, A50W, A51E
modifications: left off: GST, N-terminal, cleaved | GFP, C-terminal, kept
notes: PEX39 fused at the C terminus to a GSG linker and mEGFP
Entry into YG hydrogel ([4]; wild-type hydrogel): did not by itself enter the YG hydrogel
